Laboratory results published in the supplement of paper PMC5844555.

Key:
Assay in all cases: 3' UTR reporter interaction score (median-centred robust z-score of log2 firefly/Renilla activity); higher = less repression of the 3' UTR reporter
Details in all cases: HEK293T; 48 h
BRCA2 = system: BRCA2
Method in brief: (§1)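 Firefly and Renilla luciferase activities were read 48 h post-transfection in HEK293T cells (10,000/well, 96-well plates). The cells had received 100 ng firefly luc2P reporter bearing the gene's 3' UTR, 20 ng Renilla pRL-TK control and 2.5 pmol miRNA mimic via DharmaFECT Duo. The interaction score, where more negative means interaction, is a per-plate robust z-score (median, median absolute deviation) of the log firefly/Renilla ratio, median-centred per miRNA and averaged over at least two independent screens.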

EZH2 = system: EZH2
Method in brief: as §1

FBXW7 = system: FBXW7
Method in brief: as §1

HRAS = system: HRAS
Method in brief: as §1

MYB = system: MYB
Method in brief: as §1

MYCN = system: MYCN
Method in brief: as §1

MYC = system: MYC
Method in brief: as §1

MYT1L = system: MYT1L
Method in brief: as §1

NOTCH1 = system: NOTCH1
Method in brief: as §1

PHF6 = system: PHF6
Method in brief: as §1

PHOX2B = system: PHOX2B
Method in brief: as §1

RB1 = system: RB1
Method in brief: as §1

TP53 = system: TP53
Method in brief: as §1

ZEB2 = system: ZEB2
Method in brief: as §1

Row | Sequence | 3' UTR reporter interaction score (BRCA2) | 3' UTR reporter interaction score (EZH2) | 3' UTR reporter interaction score (FBXW7) | 3' UTR reporter interaction score (HRAS) | 3' UTR reporter interaction score (MYB) | 3' UTR reporter interaction score (MYCN) | 3' UTR reporter interaction score (MYC) | 3' UTR reporter interaction score (MYT1L) | 3' UTR reporter interaction score (NOTCH1) | 3' UTR reporter interaction score (PHF6) | 3' UTR reporter interaction score (PHOX2B) | 3' UTR reporter interaction score (RB1) | 3' UTR reporter interaction score (TP53) | 3' UTR reporter interaction score (ZEB2)
1 | UGUGCAAAUCUAUGCAAAACUGA | -0.799 | -0.0175 | 0.679 | -1.18 | -0.797 | -2.74 | -0.0223 | 0.342 | -0.179 | 0.299 | 0.393 | 0.548 | 0.088 | -1.34
2 | UGUGCUUGCUCGUCCCGCCCGCAG | 0.879 | -0.199 | -0.0879 | -0.789 | -0.522 | -0.114 | 0.429 | 0.198 | 0.256 | 1.4 | 0.4 | 0.514 | -0.328 | 0.763
3 | UGUGUCACUCGAUGACCACUGU | 0.0202 | 1.04 | 1.58 | 1.13 | -0.364 | 0.203 | 0.947 | -1.73 | -1.12 | -0.745 | 0.976 | -0.876 | 0.4 | 0.295
4 | UGUUUGCAGAGGAAACUGAGAC | -0.0179 | 0.739 | -1.52 | 1.34 | 1.43 | 0.322 | 0.778 | -0.13 | -0.933 | -0.0326 | -0.484 | -0.175 | -0.173 | -1.2
5 | UUAAGACUUGCAGUGAUGUUUAA | 0.155 | 0.772 | 1.23 | 0.424 | -1.14 | 0.438 | -0.159 | -0.158 | 0.344 | -1.09 | -0.221 | -2.53 | 1.42 | -4.05
6 | UUAAGGCACGCGGUGAAUGCCA | -0.0269 | -1.56 | 0.904 | 0.364 | -2.16 | 0.541 | -0.0293 | 2.33 | 0.623 | -1.29 | 0.282 | -1.9 | 0.35 | -0.335
7 | UUAAUGCUAAUCGUGAUAGGGG | -0.67 | 1.21 | 0.373 | 0.347 | -1.61 | -0.313 | 0.891 | -0.119 | 0.178 | -0.0755 | 0.553 | -0.667 | 0.0933 | -0.523
8 | UUACAGUUGUUCAACCAGUUACU | 1.74 | 0.156 | -1.36 | 0.218 | -0.553 | -1.85 | 0.385 | 0.162 | -0.374 | 1.47 | -0.835 | -3.47 | 0.131 | -1.76
9 | UUAUAAUACAACCUGAUAAGUG | 0.693 | 0.963 | -0.529 | 0.161 | -0.653 | 0.404 | 1.32 | -1.13 | -0.345 | -0.286 | -0.00808 | 1.94 | -0.443 | -0.469
10 | UUAUCAGAAUCUCCAGGGGUAC | 0.769 | -0.893 | 0.189 | 0.803 | 1.26 | -0.164 | 1.44 | -0.147 | 0.0518 | 0.08 | -1.55 | -0.955 | -0.646 | 0.799
11 | UUAUGGUUUGCCUGGGACUGAG | 0.104 | 0.163 | -3.46 | 0.369 | 1.44 | -0.255 | 0.675 | 1.06 | -0.409 | -0.769 | 0.156 | -0.796 | -1.16 | -0.72
12 | UUCAACGGGUAUUUAUUGAGCA | 0.803 | 0.563 | 0.647 | 1.35 | -0.5 | 0.423 | -0.455 | -0.699 | -0.631 | -0.872 | 0.542 | 0.475 | 0.52 | -0.63
13 | UUCAAGUAAUCCAGGAUAGGC | 1.36 | -4.57 | 1.99 | -0.41 | 1.11 | -0.368 | -1.71 | 1.27 | 1.68 | -0.0329 | -0.534 | -0.662 | 0.423 | -0.465
14 | UUCAAGUAAUUCAGGAUAGGUU | 0.455 | -4.18 | 1.51 | -1.14 | 1.26 | 0.732 | -1.49 | 1.44 | 1.02 | -0.939 | 0.967 | -1.95 | -0.282 | 0.133
15 | UUCACAGGGAGGUGUCAUUUAU | -0.226 | 1.32 | -3.1 | 0.0679 | -0.536 | 1.06 | 0.377 | 0.885 | 0.269 | -1.72 | -0.65 | 0.105 | 0.0668 | -0.846
16 | UUCACAGUGGCUAAGUUCUGC | -0.687 | -0.367 | -3.31 | -1.25 | 1.56 | 0.736 | -0.0656 | 0.34 | 1.04 | 0.752 | 0.845 | 0.0429 | -0.662 | 0.787
17 | UUCACCACCUUCUCCACCCAGC | -0.718 | 0.425 | -2.88 | 0.00141 | 0.974 | 0.95 | 0.119 | 0.639 | -0.224 | -0.605 | 0.365 | 0.874 | -0.656 | 1.21
